Broadly, the inhibition is the drop in the measured response relative to a control, in per cent.

Structures are written as SMILES.

What all share (type): functional
Test [1] has as its system Brassica napus. The experiment in a line: Herbicidal activity against Brassica napus (oilseed rape) assessed as inhibition of weed growth at 1.5 kg/ha using postemergence treatment protocol. Conditions: post-emergence.
Test [2] deals with Echinochloa crus-galli. In words: Herbicidal activity against Echinochloa crus-galli (barnyard grass) assessed as inhibition of weed growth at 1.5 kg/ha using postemergence treatment protocol. The following applies: post-emergence.
The test system of test [3] is Brassica napus. In words: Herbicidal activity against Brassica napus (oilseed rape) assessed as inhibition of weed growth at 75 g/ha using postemergence treatment protocol. Conditions: post-emergence.
Test [4] concerns Amaranthus retroflexus. The experiment in a line: Herbicidal activity against Amaranthus retroflexus assessed as inhibition of weed growth at 75 g/ha using postemergence treatment protocol. The following applies: post-emergence.
The subject of test [5] is Brassica napus. In words: Herbicidal activity against Brassica napus (oilseed rape) assessed as inhibition of weed growth at 750 g/ha using postemergence treatment protocol. The following applies: post-emergence.
Test [6] deals with Amaranthus retroflexus. The experiment in a line: Herbicidal activity against Amaranthus retroflexus assessed as inhibition of weed growth at 150 g/ha using postemergence treatment protocol. The following applies: post-emergence.
Test [7] concerns Amaranthus retroflexus. The experiment in a line: Herbicidal activity against Amaranthus retroflexus assessed as inhibition of weed growth at 1.5 kg/ha using preemergence treatment protocol. The following applies: pre-emergence.
The test system of test [8] is Amaranthus retroflexus. In words: Herbicidal activity against Amaranthus retroflexus assessed as inhibition of weed growth at 375 g/ha using postemergence treatment protocol. Conditions: post-emergence.
The subject of test [9] is Digitaria sanguinalis. In words: Herbicidal activity against Digitaria sanguinalis (hairy crabgrass) assessed as inhibition of weed growth at 1.5 kg/ha using pre-emergence treatment protocol.
In test [10] the test system is Echinochloa crus-galli. The experiment in a line: Herbicidal activity against Echinochloa crus-galli (barnyard grass) assessed as inhibition of weed growth at 1.5 kg/ha using preemergence treatment protocol. The following applies: pre-emergence.
For test [11], the system named is Amaranthus retroflexus. In words: Herbicidal activity against Amaranthus retroflexus assessed as inhibition of weed growth at 1.5 kg/ha using postemergence treatment protocol. Conditions: post-emergence.
The test system of test [12] is Digitaria sanguinalis. The experiment in a line: Herbicidal activity against Digitaria sanguinalis (hairy crabgrass) assessed as inhibition of weed growth at 1.5 kg/ha using post-emergence treatment protocol.
The test system of test [13] is Amaranthus retroflexus. In words: Herbicidal activity against Amaranthus retroflexus assessed as inhibition of weed growth at 750 g/ha using postemergence treatment protocol. The following applies: post-emergence.
The test system of test [14] is Brassica napus. The experiment in a line: Herbicidal activity against Brassica napus (oilseed rape) assessed as inhibition of weed growth at 150 g/ha using postemergence treatment protocol. Conditions: post-emergence.
Test [15] deals with Brassica napus. The experiment in a line: Herbicidal activity against Brassica napus (oilseed rape) assessed as inhibition of weed growth at 375 g/ha using postemergence treatment protocol. The following applies: post-emergence.
Test [16] deals with Brassica napus. The experiment in a line: Herbicidal activity against Brassica napus (oilseed rape) assessed as inhibition of weed growth at 1.5 kg/ha using preemergence treatment protocol. Conditions: pre-emergence.

Take `CCOCCOC(=O)/C(C#N)=C(\NCc1cc(-c2ccc(Cl)cc2)no1)C(C)C`: the inhibition at 1500 g/ha in the test with Brassica napus [1] is 100%; with Echinochloa crus-galli [2], 33%; with Amaranthus retroflexus [7] it was 68.7%; in the test with Digitaria sanguinalis [9], 0%; in the test on Echinochloa crus-galli [10], 0%; in the test with Amaranthus retroflexus [11], 100%. In addition, the inhibition at 1500 g/ha in the test on Digitaria sanguinalis [12] stood at 64.1%; in the test on Brassica napus [16] it was 10.6%. Besides, the inhibition at 75 g/ha is 29.6% in the test on Brassica napus [3] and 8.7% in the test with Amaranthus retroflexus [4]. Moreover, the inhibition at 750 g/ha in the test with Brassica napus [5] and with Amaranthus retroflexus [13] was 100% in each case. Besides, the inhibition at 150 g/ha came to 26.1% in the test on Amaranthus retroflexus [6] and 36.3% in the test with Brassica napus [14]. Also, the inhibition at 375 g/ha with Amaranthus retroflexus [8] and in the test with Brassica napus [15] was 100% throughout.

With `CCOCCOC(=O)/C(C#N)=C(\NCc1cc(-c2ccc(OC)cc2)no1)C(C)C`, the inhibition at 1500 g/ha with Brassica napus [1] turned out to be 100%; with Echinochloa crus-galli [2], 0%; with Amaranthus retroflexus [7] it was 45.2%; in the test on Digitaria sanguinalis [9] it was 0%; in the test on Echinochloa crus-galli [10], 0%; in the test with Amaranthus retroflexus [11] it was 100%. In addition, the inhibition at 1500 g/ha stood at 14.3% in the test with Digitaria sanguinalis [12] and 40.9% in the test with Brassica napus [16]. Moreover, the inhibition at 75 g/ha with Brassica napus [3] was 82.5%; with Amaranthus retroflexus [4], 65.2%. In addition, the inhibition at 750 g/ha in the test with Brassica napus [5] and in the test on Amaranthus retroflexus [13] was 100% each time. Besides, the inhibition at 150 g/ha with Amaranthus retroflexus [6] was 93.5%; with Brassica napus [14] it was 100%. The inhibition at 375 g/ha in the test with Amaranthus retroflexus [8] and in the test on Brassica napus [15] was 100% throughout.

As for `CCOCCOC(=O)/C(C#N)=C(\NCc1cc(-c2ccc(Cl)cc2Cl)no1)C(C)C`, the inhibition at 1500 g/ha in the test on Brassica napus [1] worked out at 100%; with Echinochloa crus-galli [2], 56.7%; in the test with Amaranthus retroflexus [7] it was 50.2%; in the test with Digitaria sanguinalis [9], 18.1%; in the test with Echinochloa crus-galli [10] it was 0%; in the test on Amaranthus retroflexus [11], 100%. Also, the inhibition at 1500 g/ha with Digitaria sanguinalis [12] came out at 63.3%; in the test on Brassica napus [16], 21.3%. Besides, the inhibition at 75 g/ha in the test on Brassica napus [3] worked out at 11.4%; in the test on Amaranthus retroflexus [4] it was 10.9%. In addition, the inhibition at 750 g/ha in the test on Brassica napus [5] and in the test with Amaranthus retroflexus [13] was 100% each time. Moreover, the figures for the inhibition at 150 g/ha with Amaranthus retroflexus [6] and in the test with Brassica napus [14] were 19.6% and 21.8%, respectively. Besides, the inhibition at 375 g/ha in the test with Amaranthus retroflexus [8] and in the test on Brassica napus [15] was 100% each time.

Turning to `CCOCCOC(=O)/C(C#N)=C(\NCc1ccc(Cl)nc1)SC`, the inhibition at 1500 g/ha came out at 100% with Brassica napus [1]; 55.3% in the test on Echinochloa crus-galli [2]; 32.4% with Amaranthus retroflexus [7]; 18.8% with Digitaria sanguinalis [9]; 3.6% with Echinochloa crus-galli [10]; 100% with Amaranthus retroflexus [11]. The inhibition at 1500 g/ha with Digitaria sanguinalis [12] worked out at 54.1%; in the test on Brassica napus [16], 47.6%. For the same molecule, the inhibition at 75 g/ha in the test on Brassica napus [3] was 80.9%; in the test with Amaranthus retroflexus [4], 0%. The inhibition at 750 g/ha in the test with Brassica napus [5] stood at 100%; in the test with Amaranthus retroflexus [13] it was 87.9%. For the same molecule, the inhibition at 150 g/ha with Amaranthus retroflexus [6] was determined as 0%; with Brassica napus [14], 100%. For the same molecule, the inhibition at 375 g/ha stood at 18.7% in the test with Amaranthus retroflexus [8] and 100% in the test with Brassica napus [15].

For `CCOCCOC(=O)/C(C#N)=C(\NCc1cc(-c2ccccc2)no1)C(C)C`, the inhibition at 1500 g/ha with Brassica napus [1] was found to be 100%; with Echinochloa crus-galli [2] it was 40%; in the test with Amaranthus retroflexus [7], 88.6%; in the test on Digitaria sanguinalis [9], 24.9%; in the test with Echinochloa crus-galli [10] it was 0%; in the test on Amaranthus retroflexus [11], 100%. Besides, the inhibition at 1500 g/ha stood at 59.4% with Digitaria sanguinalis [12] and 28.7% in the test with Brassica napus [16]. For the same molecule, the inhibition at 75 g/ha with Brassica napus [3] amounted to 54.2%; in the test on Amaranthus retroflexus [4], 17.4%. Moreover, the inhibition at 750 g/ha with Brassica napus [5] and in the test with Amaranthus retroflexus [13] was 100% each time. Moreover, the inhibition at 150 g/ha in the test with Amaranthus retroflexus [6] is 78.3%; with Brassica napus [14] it was 97.3%. Also, the inhibition at 375 g/ha in the test on Amaranthus retroflexus [8] and in the test on Brassica napus [15] was 100% throughout.

These data come from ChEMBL document CHEMBL3046355, “Design, synthesis, and herbicidal activities of novel 2-cyanoacrylates containing isoxazole moieties” (2010).
